In brackets after ≈: the same amount, converted by molar mass.
Legend:
Assay type in all cases: functional
Micrococcus luteus = test: Antimicrobial activity against Micrococcus luteus
[1] = test system: Trichophyton mentagrophytes; test: Antimicrobial activity against Trichophyton mentagrophytes
Cryptococcus neoformans = test: Antimicrobial activity against Cryptococcus neoformans

MIC (Micrococcus luteus): 4 µg/mL (≈ 18.1 µM)
MIC [1]: 16 µg/mL (≈ 72.3 µM)
MIC (Cryptococcus neoformans): 16 µg/mL (≈ 72.3 µM)
SMILES: C[C@@H]1CC[C@@H]2[C@@H]1[C@H]1[C@@H](CC[C@]2(C)N)C1(C)C [HALICHONADIN F]

— ChEMBL document CHEMBL1157532, “Halichonadin F and the Cu(I) complex of halichonadin C from the sponge Halichondria sp” (2008)
